Patent US20150315218A1, “SALTS OF PRODRUGS OF PIPERAZINE AND SUBSTITUTED PIPERIDINE ANTIVIRAL AGENTS” (Bristol-Myers Squibb Company, priority 2004, published 2015)
Counter-ions that a name gives are not always drawn. Like-named read-outs stand apart in the source and are kept apart here. Values belong to the compound of their own block, whether it stands above or below them.

Assays:
[1] = rat, 10 μM
[2] = monkey, 10 μM
[3] = dog, 10 μM
[4] = pH 7.5
[5] = monkey
[6] = dog
[7] = 2-week oral dose rat toxicology / TK study F; format: in vivo; settings: rat, plasma, historical; for AUC(0-t): read-out: Mean AUC0-24 hr
Protocol: In the 2-week oral rat study F (n=six/sex/group), Compound IVe was administered at daily doses of 15, 75, or 200 mg/kg. […] On Day 14, AUC0-24 h values were slightly higher in females (≦644 μg*hr/ml) compared to males (526.88 μg*hr/ml) at dosages 200 mg/kg/day. The oral (PO) results from Study F are in Table 5.

[8] = Oral dose escalation study in rats (Study D of Ica; historical Study E of IVc); format: in vivo; settings: Sprague-Dawley, rat, plasma; for concentration at 24 h: read-out: C-24 hr; for AUC: read-out: Mean AUCtot
Protocol: Pharmacokinetic analysis was performed on Kinetica™.
The brain samples were blotted dry and the wet weights were recorded.

[9] = MAP studies G and H: PO dosing of diester IIa and monoester II′a in rats; format: in vivo, rat; settings: 5 mg/kg; for AUC / Cmax / Tmax / bioavailability / half-life: male, Sprague-Dawley, rat, plasma, po; for half-life: read-out: T½ p.o. (converted)
Protocol: Compound IVa was administered in a polyethylene glycol 400 (PEG400)/ethanol (EtOH) solution (90/10, v/v) unless noted otherwise. Plasma and tissue samples were collected and stored at −20° C. until analysis. Male Sprague-Dawley rats (300-350 g, Hilltop Lab Animals, Inc., Scottdale, Pa. 15683) with cannulas implanted in the jugular vein and/or bile duct were used in the pharmacokinetic studies of compound IVa. Rats were fasted overnight in PO studies. Blood samples (0.3 mL) were collected from the jugular vein in EDTA-containing microtainer tubes (Becton Dickinson, Franklin Lakes, N.J. 07147) to obtain plasma. […] In the PO studies, rats (n=3) received PO doses of 5 and 100 mg/kg.
The procedure for the oral dosing leg of MAP study A1 was followed except that diester IIa was utilized in place of Compound IVa. […] The data is described in Table 10 below:
The procedure for the oral dosing leg of MAP study A1 was followed except that monoester II′a was utilized in place of Compound IVa. […]

[10] = Multiple dose study of Compound IVa in healthy humans; format: in vivo, human; settings: multiple Q12H doses, 14 days
Protocol: A placebo-controlled, ascending multiple-dose study to evaluate the safety, tolerability and pharmacokinetics of Compound IVa in healthy human subjects was carried out. Dosing was continued at 12 h intervals for 14 days. […] Thus, the exposure was better when dosing was combined with a high fat meal and exposure increases with dose were higher with a high fat meal.

[11] = 2-week rat toxicity study (5, 50 or 500 mg/kg BID); format: in vivo; settings: 2 weeks, in-life phase completed
Protocol: A 2-week rat toxicity study using dosages of 5, 50, or 500 mg/kg BID to support the IND is ongoing (3).

[12] = Capsule formulation studies of IVa (clinical form, spray dried form) vs Iab in fasted dogs; format: in vivo, dog; settings: capsules, 20 mg/kg of IVa equivalent
Protocol: Additional formulation studies of IVa were conducted in fasted dogs (n=2 per dose group). The dogs were administered either the clinical form or the spray dried form of IVa in capsules. The clinical capsule form of IVa was administered at a single dose of 20 mg/kg. The spray dried form of IVa was administered at 20, 75 and 200 mg/kg.

[13] = pKa; format: physicochemical; settings: read-out: pKa (potentiometric)
[14] = test system: Caco-2 cells; experiment: Hydrolysis of prodrug in Caco-2 cells; format: in vitro ADME
[15] = IVa following PO dosing of diester IIa
[16] = IVa following PO dosing of monoester II′a

SMILES: COc1cnc(-n2cnc(C)n2)c2[nH]cc(C(=O)C(=O)N3CCN(C(=O)c4ccccc4)CC3)c12 [IVc]
- Cmax ([7]; rats PO 15 mg/kg (soln), 80/10/10 PEG-400/Ethanol/0.1N NaOH): 42 µM
- AUC(0-t) ([7]; rats PO 15 mg/kg (soln)): 418 µM·h
- Cmax ([7]; rats PO 75 mg/kg (susp)): 65 µM
- AUC(0-t) ([7]; rats PO 75 mg/kg (susp)): 792 µM·h
- Cmax ([7]; rats PO 200 mg/kg (susp)): 76 µM
- AUC(0-t) ([7]; rats PO 200 mg/kg (susp)): 1080 µM·h
- concentration at 24 h ([8]; oral, 25 mg/kg): 610 nM
- concentration at 24 h ([8]; oral, 75 mg/kg): 5200 nM
- concentration at 24 h ([8]; oral, 200 mg/kg): 10000 nM
- Cmax ([8]; po, 25 mg/kg): 46 µM
- Tmax ([8]; po, 25 mg/kg): 4 h
- AUC ([8]; po, 25 mg/kg): 458 µM·h
- Cmax ([8]; po, 75 mg/kg): 86 µM
- Tmax ([8]; po, 75 mg/kg): 5 h
- AUC ([8]; po, 75 mg/kg): 1070 µM·h
- Cmax ([8]; po, 200 mg/kg): 42 µM
- Tmax ([8]; po, 200 mg/kg): 4 h
- AUC ([8]; po, 200 mg/kg): 518 µM·h
- Cmax ([8]; male, po, 5 mg/kg): 29 ± 14 µM
- Tmax ([8]; male, po, 5 mg/kg): 0.5 ± 0.25 h
- concentration at 24 h ([8]; male, po, 5 mg/kg): 29 ± 8 nM
- AUC ([8]; male, po, 5 mg/kg): 109 ± 15 µM·h
- Cmax ([8]; male, po, 25 mg/kg): 98 ± 21 µM
- Tmax ([8]; male, po, 25 mg/kg): 1.7 ± 2 h
- concentration at 24 h ([8]; male, po, 25 mg/kg): 350 ± 130 nM
- AUC ([8]; male, po, 25 mg/kg): 586 ± 53 µM·h
- Cmax ([8]; male, po, 200 mg/kg): 281 ± 55 µM
- Tmax ([8]; male, po, 200 mg/kg): 1.1 ± 0.8 h
- concentration at 24 h ([8]; male, po, 200 mg/kg): 58000 ± 36000 nM
- AUC ([8]; male, po, 200 mg/kg): 2920 ± 304 µM·h

SMILES: COc1ncc(OC)c2c(C(=O)C(=O)N3CCN(C(=O)c4ccccc4)CC3)c[nH]c12 [IVa, N-(benzoyl)-N′-[(4,7-dimethoxy-6-azaindol-3-yl)-oxoacetyl]piperazine]
- Cp @ 24 hr p.o. (nM) [9, 15]: Not detected
- Cp @ 24 hr p.o. (nM) ([9]; IVa following PO dosing of monoester II′a, n = 2/3): 3.61 (n = 2/3) nM
- AUC [9, 15]: 4 ± 1 µM·h
- Cmax [9, 15]: 1120 ± 270 nM
- Tmax [9, 15]: 2.7 ± 1.2 h
- bioavailability [9, 15]: 33%
- half-life [9, 15]: 78 ± 15.6 min
- AUC [9, 16]: 5.9 ± 2.2 µM·h
- Cmax [9, 16]: 1590 ± 615 nM
- Tmax [9, 16]: 2 ± 1.7 h
- bioavailability [9, 16]: 44%
- half-life [9, 16]: 168 ± 96 min
- accumulation [10]: ≤ 1.5 fold

SMILES: O=C(C(=O)N1CCN(C(=O)c2ccccc2)CC1)c1cn(COP(=O)(O)O)c2c(-n3ccnn3)ncc(F)c12 [Ibb, [3-[(4-benzoylpiperazin-1-yl)(oxo)acetyl]-4-fluoro-7-(1H-1,2,3-triazol-1-yl)-1H-pyrrolo[2,3-c]pyridin-1-yl]methyl dihydrogen phosphate, L-lysine salt (1:1)]
- pKa [13]: 6.1
- hydrolysis to parent in Caco-2 cells [14]: completely hydrolyzed

Now from value to compound, other results behind:

- Icb ([1]; 0 min): 7.6 µM
- Icb ([1]; 15 min): 6.5 µM
- Icb ([1]; 90 min): 2.1 µM
- Icb ([2]; 0 min): 9.3 µM
- Icb ([2]; 15 min): 7.1 µM
- Icb ([2]; 90 min): 1.1 µM
- Icb ([3]; 0 min): 10 µM
- Icb ([3]; 15 min): 9.7 µM
- Icb ([3]; 90 min): 6.9 µM
- Icb ([4]; 0 min, 10 μM): 11 µM
- Icb ([4]; 15 min): 11 µM
- Icb ([4]; 30 min): 11 µM
- Icb ([4]; 45 min, 10 μM): 11 µM
- Icb ([4]; 60 min, 10 μM): 10 µM
- Icb ([4]; 90 min, 10 μM): 11 µM
- stability / conversion of prodrug to parent in Tris-HCl buffer ([4]; 90 min): less than 2%
- conversion of prodrug to parent in blood containing EDTA [5]: < 2%
- Icb ([5]; 0 min): 12 µM
- Icb ([5]; 15 min): 12 µM
- Icb ([5]; 90 min): 11 µM
- conversion of prodrug to parent in blood containing EDTA [6]: < 2%
- Icb ([6]; 0 min): 10 µM
- Icb ([6]; 15 min): 10 µM
- Icb ([6]; 90 min): 11 µM
SMILES: COc1cnc(-n2cnc(C)n2)c2c1c(C(=O)C(=O)N1CCN(C(=O)c3ccccc3)CC1)cn2COP(=O)(O)O [Icb, [3-[(4-benzoylpiperazin-1-yl)(oxo)acetyl]-4-methoxy-7-(3-methyl-1H-1,2,4-triazol-1-yl)-1H-pyrrolo[2,3-c]pyridin-1-yl]methyl dihydrogen phosphate, 2-amino-2-(hydroxymethyl)propane-1,3-diol salt (1:1)]

- AUC of IVa from the prodrug relative to the clinical form of IVa [12]: 37 times
- Cmax of IVa from the prodrug relative to the clinical form of IVa [12]: 45 times
SMILES: COc1cnc(OC)c2c1c(C(=O)C(=O)N1CCN(C(=O)c3ccccc3)CC1)cn2COP(=O)(O)O [Iab, {3-[(4-benzoylpiperazin-1-yl)(oxo)acetyl]-4,7-dimethoxy-1H-pyrrolo[2,3-c]pyridin-1-yl}methyl dihydrogen phosphate, L-lysine salt (1:1)]
- in-life observations [11]: no noteworthy in-life observations
